Results as given in article PMC5441580, “GPR40 partial agonist MK-2305 lower fasting glucose in the Goto Kakizaki rat via suppression of endogenous glucose production” (PLoS ONE, 2017).
Values joined by “and” are separate entries in the source; they are usually repeats but may differ in a detail not shown here. Equal entries are not always repeated.

Experiments:
[1] = system: GK rats; assay: OGTT with insulin co-measurement on Day 13 of chronic treatment, parallel set of animals; format: in vivo, rat; set-up: unit not given here; conditions: Time 10, individual animals
[2] = target: T1, Rat PPARγ (Rattus norvegicus, UniProt O88275); assay: cell-based nuclear receptor profiling (Indigo Biosciences), PPARγ
T1 sequence (O88275 238-505 limits assumed): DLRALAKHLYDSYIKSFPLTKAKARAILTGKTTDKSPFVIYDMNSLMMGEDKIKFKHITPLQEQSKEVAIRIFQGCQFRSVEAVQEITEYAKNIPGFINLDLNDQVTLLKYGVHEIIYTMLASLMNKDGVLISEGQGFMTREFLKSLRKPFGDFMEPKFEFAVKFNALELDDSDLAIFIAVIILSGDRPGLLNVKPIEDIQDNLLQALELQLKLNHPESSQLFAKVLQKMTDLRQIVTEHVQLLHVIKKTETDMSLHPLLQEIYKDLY
Procedure: Rat PPARα, PPARδ, and PPARγ activities were determined by Indigo Biosciences (State College, PA) cell-based nuclear receptor profiling service.

[3] = system: perfused db/db mouse livers; assay: isolated perfused liver study, 13C NMR, [2-13C] pyruvate
Procedure: To evaluate whether GPR40 partial agonist treatment produced a direct effect on hepatic glucose production, we performed isolated perfused liver studies with ^13C NMR spectroscopy in which GPR40 agonists were dosed directly to the liver ex vivo. Mouse livers were chosen instead of rat livers due to size restrictions of the perfused liver apparatus. […] A detailed description of the perfused liver technique can be found elsewhere. Briefly, db/db mice were anesthetized (Nembutal IP, 100 mg/kg), the portal vein was cannulated and tied off, and the liver was excised and perfused with a pre-oxygenated Krebs-bicarbonate buffered solution. The liver was then placed into a 20 mm NMR tube and the gluconeogenic substrate [2-^13C] pyruvate (10 mM) was added to the perfusate plus either MK-2305 (10 μM) or vehicle (0.1% DMSO). […] These NMR signals were then converted to absolute units (μmoles) by comparison to ^13C NMR spectra of standard solutions acquired under identical conditions. Additional correction factors were included for ^13C-glycogen and ^13C-glucose to account for the fact that position 2 in pyruvate can end up at position 1, 2, 5, or 6 in glucose/glycogen due to the fumarase and triose phosphate isomerase reactions. The slope of each signal versus time was then used to calculate the following fluxes: glucose production, glycogen synthesis, and lactate production.

[4] = plasma exposure of the compounds on day 14 of the chronic study; format: in vivo, rat; conditions: day 14, similar at fed and fasted time points, GK rats
Procedure: At the start of the study, fed glucose was measured at 8 A.M., and animals were selected and sorted into treatment groups based on ambient glucose (n = 10/male GK group, n = 6/male WKY control group). Animals were then placed on diet (LabDiet # 5001) that contained, or was devoid of, compound at the daily doses indicated. Fed blood glucose, food intake, and body weights were determined on days 0, 1, 3, 7, and 14 of study at 8 A.M. On days 7 and 14, food was removed for 5 h and plasma glucose was measured. Percent inhibitions were calculated as the percent reduction of blood glucose from the average value for vehicle controls. On day 14, blood was collected from the tail vein (20 μl) after the morning glucose measurement and after 5 h fast from a subset of n = 3 rats per treatment group to determine the ambient and fasted exposure of the compounds in circulation. The blood was stored at 4°C in 0.1 M sodium monocitrate for subsequent analysis. Animals were then re-fed their respective diet treatments. On day 20 of treatment at 8 A.M., blood glucose was measured and then animals were euthanized via CO2 asphyxiation. Blood and liver tissue were sampled, processed, and stored at -80°C until analysis.

[5] = system: GK rats; assay: 13C-labeled OGTT, 13C metabolites in liver and skeletal muscle; format: in vivo, rat; conditions: for 13C Labeled Metabolite, Ala C3 / 13C Labeled Metabolite, G6P C1 / 13C Labeled Metabolite, Glyc C1 / 13C Labeled Metabolite, Lac C3: [1-13C] glucose, acute treatment, individual animals
Procedure: GK rat OGTT procedures were followed as above. Animals were treated PO at 5 ml/kg with MK-2305 at 10 mg/kg or vehicle at time = -60 min. At time = 0, animals were challenged PO at 10 ml/kg dose volume with [1-^13C] glucose prepared in distilled water at 1 g/kg (Sigma-Aldrich). Blood glucose was measured pre-treatment and at t = 0, 20, 40, 60, 120 minutes post challenge. Following the blood glucose measurement at time = 120 min, animals were anesthetized with Isoflurane (Isothesia, Henry Schein, Dublin, OH) and samples of liver and skeletal muscle were collected. Tissue samples were processed using a methanol/water based extraction procedure as follows. Frozen tissue was weighed and added to tubes containing 80% methanol at a ratio of 100 mg tissue per mL 80% methanol. The samples were homogenized at 4°C using a Polytron homogenizer equipped with a 12 mm stainless steel head. Samples were then centrifuged at 25,000 rcf for 10 min at 4°C, the supernatant collected, and the pellet extracted again using an equivalent volume of 80% methanol. The supernatants from both extractions were pooled and the methanol evaporated under nitrogen. The samples were then reconstituted in 180 μl 0.1M sodium phosphate in D2O (pH 7.4) for NMR analysis. ^13C NMR of tissue extracts was performed on a 600 MHz Bruker NMR spectrometer (David H. Murdock Research Institute) using the following parameters: 45° pulse, D1 = 0.2 sec, NS = 3200 averages, ^1H broadband decoupling (WALTZ-16), acquisition time ~45 min. […] These NMR signals were integrated and converted to absolute units (μmoles) using ^13C NMR spectra from standard solutions of each metabolite of known concentration acquired under identical conditions. Glycogen is a primary site of glucose disposal in both liver and muscle, however glycogen was not preserved in our tissue extraction protocol. To quantify tissue ^13C-glycogen, a separate piece of tissue from each sample was analyzed. Briefly, tissue samples were saponified in hot KOH, and this was followed by glycogen precipitation with NaSO4 and ethanol, and then degradation with amyloglucosidase. The resulting glycogen-derived glucose solution was analyzed for total glucose using a glucose oxidase / horseradish peroxidase assay kit and fluorescence-based product detection according to the manufacturers’ instructions (BioVision Glycogen Assay Kit, Milpitas, CA).

[6] = perfused db/db mouse livers, 10 mg/kg, title: 10 M, individual livers
[7] = 10 mg/kg PO, [1-13C] glucose OGTT, GK rats

EC50 [2]: > 10 µM
% Activation ([2]; @ 10 μM): 3.1 @ 10 μM % and 3.1%
% Effect ([2]; Dose 0.309 nM): -0.11%
% Effect ([2]; Dose 0.981 nM): -0.11%
% Effect ([2]; Dose 3.11 nM): -0.19%
% Effect ([2]; Dose 9.85 nM): -0.3%
% Effect ([2]; Dose 31.2 nM): -0.25%
% Effect ([2]; Dose 99 nM): -0.14%
% Effect ([2]; Dose 314 nM): -0.37%
% Effect ([2]; Dose 995 nM): -0.13%
% Effect ([2]; Dose 3155 nM): 0.6%
% Effect ([2]; Dose 10000 nM): 3.1%
plasma exposure ([4]; 10 mg/kg in feed): ~ 15 μM
plasma exposure ([4]; 30 mg/kg in feed): ~ 39 μM
SMILES: O=C1NC(=O)C(C2CCOc3cc(Oc4ccc(C(F)(F)F)cc4Cl)ccc32)S1 (stereo not drawn) [MK-2305]
Change in plasma insulin from baseline during OGTT (delta insulin) ([1]; Acute, 30 mpk, 30 mg/kg): 1.28 and 1.368 and 1.816 and 3.661 and 3.304 and 1.312 and 2.648 and 2.392 and 0.317 and 1.559
Change in plasma insulin from baseline during OGTT (delta insulin) ([1]; Chronic, 30 mkd): 1.342 and 0.561 and 1.202 and 1.9 and 1.117 and 1.167 and 2.431 and 1.17 and 1.428 and 0.831
effect on conversion of [2-13C] pyruvate to 13C-glucose, 13C-glycogen, or 13C-lactate ([3]; 10 μM, perfused db/db mouse liver): no effects
Flux, conversion of [2-13C] pyruvate to 13C-glycogen [3, 6]: 0.1121 umoles pyr /g liver*min and 0.1693 umoles pyr /g liver*min and 0.0485 umoles pyr /g liver*min and 0.07554 umoles pyr /g liver*min
Flux, conversion of [2-13C] pyruvate to 13C-lactate [3, 6]: 1.604 umoles pyr /g liver*min and 1.499 umoles pyr /g liver*min and 1.317 umoles pyr /g liver*min and 0.5832 umoles pyr /g liver*min
Flux, conversion of [2-13C] pyruvate to 13C-glucose ([3]; perfused db/db mouse livers, MK-2305 10 μM in perfusate, individual livers): 0.9558 umoles pyr /g liver*min and 1.314 umoles pyr /g liver*min and 1.287 umoles pyr /g liver*min and 0.8408 umoles pyr /g liver*min
effect on disposal of 13C-glucose into 13C-G6P, 13C-glycogen, 13C-lactate and 13C-alanine in liver [5, 7]: significant decreases
effect on disposal of 13C-glucose into metabolites in muscle [5, 7]: no significant effects
13C Labeled Metabolite, Ala C3 [5]: 0.07795 umoles/g liver and 0.1076 umoles/g liver and 0.03915 umoles/g liver and 0.01144 umoles/g liver and 0.01402 umoles/g liver and 0.02433 umoles/g liver and 0.05001 umoles/g liver and 0.007673 umoles/g liver
13C Labeled Metabolite, G6P C1 [5]: 0.02684 umoles/g liver and 0.01164 umoles/g liver and 0.007287 umoles/g liver and 0.01533 umoles/g liver and 0.00988 umoles/g liver and 0.01421 umoles/g liver and 0.01349 umoles/g liver and 0.0107 umoles/g liver
13C Labeled Metabolite, Glyc C1 [5]: 1.292 umoles/g liver and 0.3555 umoles/g liver and 0.1582 umoles/g liver and 0.4672 umoles/g liver and 0.1107 umoles/g liver and 0.1399 umoles/g liver and 0.3766 umoles/g liver and 0.2884 umoles/g liver
13C Labeled Metabolite, Lac C3 [5]: 0.03897 umoles/g liver and 0.06288 umoles/g liver and 0.02257 umoles/g liver and 0.01974 umoles/g liver and 0.01299 umoles/g liver and 0.02143 umoles/g liver and 0.0406 umoles/g liver and 0.007673 umoles/g liver
13C Labeled Metabolite, Ala C3 ([5]; skeletal muscle): 0.1279 umoles/g muscle and 0.07989 umoles/g muscle and 0.1157 umoles/g muscle and 0.07123 umoles/g muscle
13C Labeled Metabolite, G6P C1 ([5]; skeletal muscle): 0.05019 umoles/g muscle and 0.01903 umoles/g muscle and 0.04767 umoles/g muscle and 0.01045 umoles/g muscle and 0.004493 umoles/g muscle and 0.01768 umoles/g muscle and 0.003514 umoles/g muscle
13C Labeled Metabolite, Glyc C1 ([5]; skeletal muscle): 0.2857 umoles/g muscle and 0.133 umoles/g muscle and 1.635 umoles/g muscle and 0.328 umoles/g muscle and 0.06707 umoles/g muscle and 0.1828 umoles/g muscle and 0.4005 umoles/g muscle
13C Labeled Metabolite, Lac C3 ([5]; skeletal muscle): 0.2756 umoles/g muscle and 0.03448 umoles/g muscle and 0.06757 umoles/g muscle and 0.07739 umoles/g muscle and 0.08426 umoles/g muscle
